# Source: US20180369143A1, “METAL COMPLEXED THERAPEUTIC AGENTS AND LIPID-BASED NANOPARTICULATE FORMULATIONS THEREOF” (BRITISH COLUMBIA CANCER AGENCY BRANCH, priority 2015, published 2018)
# Entries after “also recorded” stand apart in the source; their conditions may differ.
# How the values were obtained:
# U251 (glioblastoma line) = test: 72 h cytotoxicity, IN CELL Analyzer, U251 cells; assay type: cell-based, human
# Experimental: The U251MG glioblastoma cell line (formerly known as U-373 MG) was originally obtained from American Type Culture Collection (Manassas, Va.) and was used for a maximum of fifteen passages. […] U87, U251MG^O, A549 and MDA231-BR cells were maintained in DMEM (Gibco) supplemented with 2 mM L-glutamine (Gibco) and 10% fetal bovine serum (Gibco). […] All cells were maintained at 37° C. and 5% CO2 The cells were seeded into 384 well plates and allowed to grow for 24 hrs and then treated as specified for 72 hours. To assess the cytotoxic effects of the indicated compounds in adherent cell lines, the cells were stained with Hoescht 33342 and ethidium homodimer I for total and dead cell counts, respectively. Twenty minutes later, the cells were imaged using an In Cell Analyzer 2200 and cell viability was measured based on viable nuclei count.
# [1] = system: MDA-231BR (triple negative breast cancer line); test: 72 h cytotoxicity, IN CELL Analyzer, MDA-231BR cells; assay type: cell-based; settings: copper+DDC
# Experimental: (§1) For studies with DDC, the cell lines U87, and A549 were obtained from ATCC, HBEpC (Human Bronchial Epithelial Cells) was obtained from Cell Applications (San Deigo, Calif.) and MDA-231-BR was from the NIH/NCI. The U251MG glioblastoma cell line (formerly known as U-373 MG) was originally obtained from American Type Culture Collection (Manassas, Va.) and was used for a maximum of fifteen passages. Subsequently, the U251MG was obtained from Sigma-Aldrich (product number 09063001). […] Both cell lines are now being maintained as separate lines U251MG^O (original line) and U251MG^SA (Sigma-Aldrich). U87, U251MG^O, A549 and MDA231-BR cells were maintained in DMEM (Gibco) supplemented with 2 mM L-glutamine (Gibco) and 10% fetal bovine serum (Gibco). HBEpC were grown in bronchial/tracheal epithelial growth medium obtained from Cell Applications and were used for a maximum of three passages. […] Twenty minutes later, the cells were imaged using an In Cell Analyzer 2200 and cell viability was measured based on viable nuclei count. For the suspension cell line MV-4-11, cells were incubated with the PrestoBlue reagent (Life Technologies) at 37° C. and 5% CO2 for 1 hour, after which cell viability was evaluated based on metabolic activity as measured with the FLUOstar OPTIMA microplate reader (BMG Labtech).
# A549 (lung cancer line) = test: 72 h cytotoxicity, A549 cells; assay type: cell-based, human
# Experimental: as §1, with “(Sigma-Aldrich).” for “(Sigma-Aldrich). U87, U251MG^O, A549 and MDA231-BR cells were maintained in DMEM (Gibco) supplemented with 2 mM L-glutamine (Gibco) and 10% fetal bovine serum (Gibco). HBEpC were grown in bronchial/tracheal epithelial growth medium obtained from Cell Applications and were used for a maximum of three passages.”
# (§2) The anticancer activity of clioquinol (CQ) in cancer lines through copper dependent and independent pathways was examined. […] Cell viability was assessed based on loss of plasma membrane integrity 72 hours following treatment. Total cell count and dead cell count were determined using Hoechst 33342 and ethidium homodimer staining, respectively. […]
# [2] = system: normal human bronchial epithelial cells HBEpC; test: 72 h cytotoxicity, normal bronchial epithelial cells; assay type: cell-based
# Experimental: as §1
# [3] = Aqueous solubility of metal complexes (qualitative); assay type: physicochemical
# [4] = Solubility of quercetin in water and HEPES buffer saline; assay type: physicochemical
# Experimental: (or 22° C.) for 60 minutes in 2 mL of the respective buffers. […] The time points for dissolution were 5, 10, 15, 30 and 60 minutes.
# (38 μg/mL). A supersaturated solution of quercetin-HBS remained stable over a one-hour period once removed from heat.
# MV-4-11 (leukemia) cells = test: 72 h cytotoxicity (PrestoBlue), MV-4-11 cells; assay type: cell-based, human
# Experimental: as §1, with “(Sigma-Aldrich).” for “(Sigma-Aldrich). U87, U251MG^O, A549 and MDA231-BR cells were maintained in DMEM (Gibco) supplemented with 2 mM L-glutamine (Gibco) and 10% fetal bovine serum (Gibco). HBEpC were grown in bronchial/tracheal epithelial growth medium obtained from Cell Applications and were used for a maximum of three passages.”, “Labtech). […]” for “Labtech).”
# as §2
# [5] = system: A2780-S (human ovarian carcinoma, platinum sensitive); test: 72 h cytotoxicity, IN CELL Analyzer, A2780-S cells; assay type: cell-based
# Experimental: FIG. 26 Clioquinol metal complex cytotoxicity in A2780-S (ovarian cancer) cells. (A) Cytotoxicity curves for CQ (-●-), Cu(CQ)2 (-▪-) and Zn(CQ)2 (-♦-) were obtained using the INCELL analyzer where viability was assessed based on loss of plasma membrane integrity 72 hours following treatment; i.e., total cell count and dead cell count were determined using Hoechst 33342 and ethidium homodimer staining, respectively. Results are given as mean ±SEM (B) IC50 values of CQ and metal complexes in A2780-S (IC50±95% CI).
# The anticancer activity of clioquinol (CQ) in cancer lines through copper dependent and independent pathways was examined. Both CQ (-●-) and Cu(CQ)2 (-▪-) were dissolved in DMSO and diluted to a final concentration of <0.5% (at higher concentrations (>100 μM) of Cu(CQ)2, precipitated drug could be seen under the microscope). A2780-S (human ovarian carcinoma, platinum sensitive), A2780-CP (human ovarian carcinoma, platinum insensitive) as well as A549 (human lung cancer), U251 (human glioblastoma) cytotoxicity curves (FIG. 22 A-D) were obtained with the IN CELL Analyzer 2200. Cell viability was assessed based on loss of plasma membrane integrity 72 hours following treatment. Total cell count and dead cell count were determined using Hoechst 33342 and ethidium homodimer staining, respectively. […]
# [6] = system: A2780-CP (human ovarian carcinoma, platinum insensitive); test: 72 h cytotoxicity, IN CELL Analyzer, A2780-CP cells; assay type: cell-based
# Experimental: The anticancer activity of clioquinol (CQ) in cancer lines through copper dependent and independent pathways was examined. Both CQ (-●-) and Cu(CQ)2 (-▪-) were dissolved in DMSO and diluted to a final concentration of <0.5% (at higher concentrations (>100 μM) of Cu(CQ)2, precipitated drug could be seen under the microscope). A2780-S (human ovarian carcinoma, platinum sensitive), A2780-CP (human ovarian carcinoma, platinum insensitive) as well as A549 (human lung cancer), U251 (human glioblastoma) cytotoxicity curves (FIG. 22 A-D) were obtained with the IN CELL Analyzer 2200. Cell viability was assessed based on loss of plasma membrane integrity 72 hours following treatment. Total cell count and dead cell count were determined using Hoechst 33342 and ethidium homodimer staining, respectively. The CQ cytotoxicity curve in MV-4-11 (human leukemia) was generated using PrestoBlue reagent to establish cell viability through metabolic activity.
# [7] = system: H460 (non-small cell lung cancer); test: 72-hour cytotoxicity assay, H460 cells; assay type: cell-based
# [8] = system: MV-4-11, HCT116WT, HCT116B18 and HCT116B46 cells; test: Cytotoxicity IC50 comparison of CX5461 with metal salts in a cell panel; assay type: cell-based
# Experimental: as §1, with “Labtech). […]” for “Labtech).”
# [9] = Plasma elimination of CX5461, free versus liposomal; assay type: in vivo; settings: within 1 hour of injection
# Experimental: Cu(DDC)2 was measured by using Cu as a surrogate marker. Samples were diluted in 0.1% HNO3 and subsequently the Cu concentration was measured using AAS (AAnalyst600, Perkin Elmer) as described above. Plasma Cu was corrected using untreated CD-1 mouse plasma as a blank. […] All other compounds were measured using HPLC as summarized below using a Waters Alliance HPLC Module 2695 and photodiode array detector model 996 and Empower 2 Software. […] Similarly, the quantification of CX5461 was performed in acidified methanol to dissociate the complex and CX5461 was measured at 300 nm following separation on a Luna C18 column (5 μm, 4.6×150 mm). The mobile phase contained a 1:1.2 mixture of 0.1% TFA in water and 0.1% TFA in methanol. A 5 μL sample volume was injected, the flow rate was set at 1 mL/min and the column temperature was 35° C.
# U87 glioblastoma cells = test: cells; assay type: cell-based; settings: for IC50: Homo sapiens, U-87 MG, absence of copper, 72 h
# Experimental: For studies with DDC, the cell lines U87, and A549 were obtained from ATCC, HBEpC (Human Bronchial Epithelial Cells) was obtained from Cell Applications (San Deigo, Calif.) and MDA-231-BR was from the NIH/NCI. The U251MG glioblastoma cell line (formerly known as U-373 MG) was originally obtained from American Type Culture Collection (Manassas, Va.) and was used for a maximum of fifteen passages. Subsequently, the U251MG was obtained from Sigma-Aldrich (product number 09063001). […] Both cell lines are now being maintained as separate lines U251MG^O (original line) and U251MG^SA (Sigma-Aldrich). U87, U251MG^O, A549 and MDA231-BR cells were maintained in DMEM (Gibco) supplemented with 2 mM L-glutamine (Gibco) and 10% fetal bovine serum (Gibco). HBEpC were grown in bronchial/tracheal epithelial growth medium obtained from Cell Applications and were used for a maximum of three passages. All cells were maintained at 37° C. and 5% CO2 The cells were seeded into 384 well plates and allowed to grow for 24 hrs and then treated as specified for 72 hours. To assess the cytotoxic effects of the indicated compounds in adherent cell lines, the cells were stained with Hoescht 33342 and ethidium homodimer I for total and dead cell counts, respectively. Twenty minutes later, the cells were imaged using an In Cell Analyzer 2200 and cell viability was measured based on viable nuclei count. For the suspension cell line MV-4-11, cells were incubated with the PrestoBlue reagent (Life Technologies) at 37° C. and 5% CO2 for 1 hour, after which cell viability was evaluated based on metabolic activity as measured with the FLUOstar OPTIMA microplate reader (BMG Labtech).
# Cytotoxicity results were obtained with an IN CELL™ Analyzer in U87 glioblastoma cells. Cell viability was assessed based on detection of plasma membrane integrity 72 hours following treatment. Total and dead cell counts were determined using Hoeschst 33342 and ethidium homodimer staining.
compound,measurement,setting,value
CCN(CC)C(=S)[S-].CCN(CC)C(=S)[S-].[Cu+2] [Cu(DDC)2],IC50,U251 (glioblastoma line); copper+DDC,345 nM
same,IC50,[1],329 nM
same,IC50,A549 (lung cancer line); copper+DDC,880 nM
same,activity against normal cells,[2],little activity
same,solubility in water / aqueous solution,[3],highly insoluble; also recorded: almost completely insoluble
"O=c1c(O)c(-c2ccc(O)c(O)c2)oc2cc(O)cc(O)c12 [quercetin, Quercetin]",solubility at 60 min,"[4]; 60 °C, water, thermodynamic from solid",12.3 µg/mL
same,solubility,[4]; 60 min,38 µg/mL
same,solubility,"[4]; HBS, room temperature",7.78 µg/mL
"Oc1c(I)cc(Cl)c2cccnc12 [CQ, Clioquinol]",copper dependence of CQ activity,U251 (glioblastoma line),copper independent
same,copper dependence of CQ activity,A549 (lung cancer line),copper dependant
same,copper dependence of CQ activity,MV-4-11 (leukemia) cells,copper independent
same,copper dependence of CQ activity,[5],copper dependant
same,copper dependence of CQ activity,[6],copper dependant
Cc1cnc(CNC(=O)c2c(=O)c3ccc(N4CCCN(C)CC4)nc3n3c2sc2ccccc23)cn1 [CX5461],effect of equimolar copper on anti-cancer activity,[7],does not alter
same,effect of equimolar copper on anti-cancer activity,MV-4-11 (leukemia) cells; 72 h,does not alter
same,activity (IC50) versus low pH preparation of metal-free compound,"[8]; combined with CuSO4, dissolution at pH 7.4",statistically similar
same,activity (IC50) versus low pH preparation of metal-free compound,"[8]; combined with ZnSO4, dissolution at pH 7.4",statistically similar
same,compound removed from circulation,[9],96%
"CCN(CC)C(=S)SSC(=S)N(CC)CC [DSF, Disulfiram]",shift in cytotoxicity in the presence of copper,U87 glioblastoma cells,2 orders of magnitude
same,IC50,U87 glioblastoma cells,> 10000 nM
"CCN(CC)C(=S)S [DDC, Diethyldithiocarbamate]",IC50,U87 glioblastoma cells,> 10000 nM
